Laboratory results: patent US7741283B2, “Compositions and methods for inhibiting cell proliferation” (St. Louis University, priority 2003, dated 2010)

Assays:
32D/IR/IRS-2 cells = experiment: [methyl-3H] thymidine incorporation, 32D/IR/IRS-2 cells; format: cell-based, murine; settings: 32D cells expressing IRS-2 and insulin receptor
DR26 cells = experiment: [methyl-3H] thymidine incorporation, DR26 cells; format: cell-based, mink; settings: IGFBP-3 0.5 μg/ml, DR26
Experimental: (A,B) DR26 cells were incubated with various concentrations as indicated of IGFBP-3 in the absence (A) and presence (B) of various concentrations of insulin. After 18 hr at 37° C., the [methyl-^3H] thymidine incorporation into cellular DNA was determined. (C,D,E) Mv1Lu, DR26 and R1B cells metabolically labeled with ^[…]-orthophosphate for 2 hr were treated with IGFBP-3 (1:g/ml) or insulin (10 nM) (C). DR26 cells metabolically labeled with ^[…]-orthophosphate for 2 hr were treated with or without IGFBP-3 (1 μg/ml) in the presence of various concentrations of TGF-β1 as indicated (D). Mv1Lu cells expressing αIβI and αIβII chimeric receptors (MB102-16 and MB102-9 cells, respectively) metabolically labeled with ^[…]-orthophosphate for 2 hr were treated with or without IGFBP-3 (1 μg/ml) or GM-CSF (1 nM) (E). After 2 hr at 37° C. (in the absence of […]-orthophosphate in the medium), the ^[…]-labeled IRS-2 was immunoprecipitated and analyzed by 7.5% SDS-PAGE and autoradiography. […]
Mv1Lu cells were plated on 24-well clustered dishes and incubated with various concentrations of TGF-β1 or IGFBP-3 in DMEM containing 0.1% fetal calf serum. After incubation at 37° C. for 18 hr, the cells were pulse-labeled with 1 μCi of [methyl-^3H]thymidine at 37° C. for 2 hr and the [methyl-^3H] thymidine incorporation into cellular DNA was determined as described previously (59). […]

H1299/LRP cells = experiment: [methyl-3H] thymidine incorporation, H1299/LRP cells; format: cell-based, human; settings: various concentrations
PEA-C11 cells = experiment: [methyl-3H] thymidine incorporation, PEA-C11 cells; format: cell-based, mink; settings: IGFBP-3 0.5 μg/ml
IRS-2 = experiment: Determination of tyrosine phosphorylation of IRS-2, Mv1Lu cells; format: cell-based, mink
Experimental: FIG. 15 depicts tyrosine phosphorylation of IRS-2 in Mv1Lu cells treated with IGFBP-3 and insulin. Cells were stimulated with or without insulin (10 nM) for 10 min and then treated with or without IGFBP-3 (1 μg/ml) for 1 hr (A). On the other hand, cells pretreated with or without IGFBP-3 (1 μg/ml) for 2 hr and then stimulated with insulin (10 nM) for 10 min (B, lane 1 and lane 2, respectively). In a parallel experiment, cells were treated with insulin (10 nM) in the presence and absence of IGFBP-3 (1 μg/ml) for 2 hr (B, lane 3 and lane 4, respectively). […] The arrow indicates the location of tyrosine-phosphorylated IRS-2.
Mv1Lu cells were plated on 30-mm dishes at a cell density of 4×10^4/cm^2 in DMEM containing 10% fetal calf serum. The cells in serum-free DMEM were pre-treated with IGFBP-3 (1 μg/ml) for 1 or 2 hr and then treated with insulin (10 nM) for 10 min or treated with insulin (10 nM) for 10 min and then treated with IGFBP-3 (1 μg/ml) for a further 2 hr, or treated simultaneously with insulin (10 nM) and IGFBP-3 (1 μg/ml) for 2 hr. The experiments were carried out at 37° C. The cell lysates were subjected to immunoprecipitation using anti-IRS-2 IgG followed by 7.5% SDS-PAGE and Western blot analysis using anti-phosphotryosine IgG and the ECL system (Santa Cruz).

[1] = system: 32D cells expressing vector only; experiment: [methyl-3H] thymidine incorporation, 32D cells transfected with vector only; format: cell-based, murine
PEA-13 cells = experiment: Cell growth (cell number), PEA-13 cells; format: cell-based, mouse; settings: IGFBP-3 up to 1 μg/ml
Experimental: FIG. 7 depicts the effect of TGF-β1 on DNA synthesis (A), cell growth (B) and PAI-1 expression (C) in MEF and PEA-13 cells. (A) Cells were treated with various concentrations of TGF-β1 as indicated. DNA synthesis was determined by measuring [methyl-^3H] thymidine incorporation into cellular DNA. The [methyl-^3H] thymidine incorporation in cells treated without TGF-β1 (100,861±3,720 and 103,262±6,722 cpm/well for MEF and PEA-13 cells, respectively) was taken as 0% inhibition. The negative values of inhibition indicate mitogenic activity. […] Each datapoint is the mean±S.D. of quadruplicate determinations. […] Data are representative of six similar experiments. (B) Cells were treated with various concentrations of TGF-β1 as indicated. The cell number was counted after a 4 day incubation. […] The negative values of the inhibition indicate the growth stimulatory activity. Each datapoint is the mean±S.D. of quadruplicate determinations. […] Data are representative of four similar experiments. (C) Cells were treated with various concentrations of TGF-β1 as indicated. The PAI-1 expression in these cells was determined by Northern blot analysis. […] The relative levels of the transcripts were quantified by a PhosphoImager. […]
Cells were plated at a density of 1-2×10^4 cells/dish in DMEM containing 1% fetal calf serum. The cell number was counted every day or after a 3-day incubation using a hematocytometer. […]

IGFBP-3: human insulin-like growth factor binding protein-3 expressed in E. Coli
Growth inhibitory response (DNA synthesis) (32D/IR/IRS-2 cells): potent growth inhibitory response
Inhibition of DNA synthesis (DR26 cells): ~80%
Effect on DNA synthesis (H1299/LRP cells): inhibited
Inhibition of DNA synthesis (PEA-C11 cells): ~10%
Effect on insulin-stimulated tyrosine phosphorylation of IRS-2 (IRS-2; IGFBP-3 pretreatment 2 hr, then insulin 10 nM 10 min): diminished
Effect on insulin-stimulated tyrosine phosphorylation of IRS-2 (IRS-2; insulin 10 nM 10 min, then IGFBP-3 1 μg/ml 1 hr): failed to affect
Effect on insulin-stimulated tyrosine phosphorylation of IRS-2 (IRS-2; simultaneous insulin 10 nM and IGFBP-3 1 μg/ml, 2 hr): enhancement
Inhibition of DNA synthesis [1]: minimally or not at all
Effect on cell growth (PEA-13 cells): did not appear to have a significant effect
